Test results as given in patent US10479780B2, “Aminopyrazole derivatives” (Chugai Seiyaku Kabushiki Kaisha, priority 2015, dated 2019).

Legend:
Format in all cases: biochemical
[1] = molecular target: T1, human Yes1 enzyme (Homo sapiens, UniProt P07947); assay: Yes1 enzyme inhibitory activity (time-resolved fluorometry, biotinylated peptide phosphorylation); conditions: read-out: YES_IC50
T1 construct: made in house
Procedure, shortened: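 Inhibition was expressed against a compound-free control to give IC50, using TR-FRET read-out (Eu-cryptate anti-pTyr antibody, streptavidin-XL665).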

[2] = molecular target: T2, human Lck enzyme (Homo sapiens, UniProt P06239); assay: Lck enzyme inhibitory activity (time-resolved fluorometry, biotinylated peptide phosphorylation); conditions: read-out: LCK_IC50
T2 construct: purchased Carna Biosciences, Inc. 08-170
T2 sequence (P06239 whole entry): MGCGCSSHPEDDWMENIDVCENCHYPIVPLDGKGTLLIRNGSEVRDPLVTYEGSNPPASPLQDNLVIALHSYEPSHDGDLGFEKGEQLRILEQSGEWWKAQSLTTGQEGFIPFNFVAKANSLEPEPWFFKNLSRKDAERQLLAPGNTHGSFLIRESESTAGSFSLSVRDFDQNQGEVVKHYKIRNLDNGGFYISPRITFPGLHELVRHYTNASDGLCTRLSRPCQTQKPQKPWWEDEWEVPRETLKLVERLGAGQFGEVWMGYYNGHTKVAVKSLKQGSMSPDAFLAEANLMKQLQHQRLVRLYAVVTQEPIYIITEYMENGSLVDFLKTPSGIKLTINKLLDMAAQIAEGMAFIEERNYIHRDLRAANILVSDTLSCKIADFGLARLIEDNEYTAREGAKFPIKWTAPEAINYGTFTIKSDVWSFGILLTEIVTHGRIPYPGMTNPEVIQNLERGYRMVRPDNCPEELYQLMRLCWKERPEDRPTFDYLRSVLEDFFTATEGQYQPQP
Procedure, shortened: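 Readout pairs a europium cryptate-labelled anti-phosphotyrosine antibody with XL665-streptavidin, measured by time-resolved fluorescence. IC50 derived from percent inhibition against untreated controls.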

[3] = molecular target: T3, human Src enzyme (Homo sapiens, UniProt P12931); assay: Src enzyme inhibitory activity (time-resolved fluorometry, biotinylated peptide phosphorylation); conditions: read-out: SRC_IC50
T3 construct: purchased Carna Biosciences, Inc. 08-173
T3 sequence (P12931 whole entry): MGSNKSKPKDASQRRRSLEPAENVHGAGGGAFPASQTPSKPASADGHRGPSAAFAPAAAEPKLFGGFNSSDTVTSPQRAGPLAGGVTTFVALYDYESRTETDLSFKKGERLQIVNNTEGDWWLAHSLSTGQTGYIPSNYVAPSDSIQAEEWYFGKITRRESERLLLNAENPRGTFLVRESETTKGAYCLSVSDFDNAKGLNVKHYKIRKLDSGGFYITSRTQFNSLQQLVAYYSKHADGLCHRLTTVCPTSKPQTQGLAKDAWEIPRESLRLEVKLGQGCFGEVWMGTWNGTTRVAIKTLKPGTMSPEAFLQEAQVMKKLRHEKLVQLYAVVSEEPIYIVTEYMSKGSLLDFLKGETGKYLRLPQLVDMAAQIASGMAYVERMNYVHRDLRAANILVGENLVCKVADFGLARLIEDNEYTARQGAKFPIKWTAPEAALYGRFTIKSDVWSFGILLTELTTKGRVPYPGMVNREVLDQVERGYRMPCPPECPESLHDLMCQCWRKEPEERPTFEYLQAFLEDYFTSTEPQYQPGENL
Procedure, shortened: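 Compounds were tested for blocking tyrosine phosphorylation of a biotinylated peptide substrate by recombinant human Src. Phosphorylated product was quantified by time-resolved fluorometry using europium cryptate and XL665 conjugates, and IC50 was calculated against the compound-free control.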

T1 sequence (P07947 whole entry): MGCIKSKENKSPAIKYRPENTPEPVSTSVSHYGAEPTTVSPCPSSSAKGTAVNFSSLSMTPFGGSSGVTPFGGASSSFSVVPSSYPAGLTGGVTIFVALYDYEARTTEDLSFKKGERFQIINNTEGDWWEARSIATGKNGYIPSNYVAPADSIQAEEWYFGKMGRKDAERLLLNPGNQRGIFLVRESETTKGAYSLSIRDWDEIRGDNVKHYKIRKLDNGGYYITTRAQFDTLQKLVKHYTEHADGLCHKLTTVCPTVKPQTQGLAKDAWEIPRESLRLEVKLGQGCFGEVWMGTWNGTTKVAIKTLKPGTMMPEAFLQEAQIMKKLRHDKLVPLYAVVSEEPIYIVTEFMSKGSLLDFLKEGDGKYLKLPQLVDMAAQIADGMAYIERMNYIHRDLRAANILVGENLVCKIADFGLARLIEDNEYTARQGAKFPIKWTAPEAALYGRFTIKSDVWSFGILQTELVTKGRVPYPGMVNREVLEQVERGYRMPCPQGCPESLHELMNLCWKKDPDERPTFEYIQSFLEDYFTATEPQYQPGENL

| IC50 [1] | IC50 [2] | IC50 [3] | SMILES |
| --- | --- | --- | --- |
| 5.2 nM | 21 nM | 26 nM | Cc1cc(Oc2c(F)cccc2F)ncc1-n1ncc(C(=O)c2cc3cc(OCC(F)F)c(-c4cnn(C)c4)cc3[nH]2)c1N [Example 5-1-264, [5-amino-1-[6-(2,6-difluorophenoxy)-4-methylpyridin-3-yl]pyrazol-4-yl]-[5-(2,2-difluoroethoxy)-6-(1-methylpyrazol-4-yl)-1H-indol-2-yl]methanone] |
| 5.4 nM | 38 nM | 440 nM | Cc1cc(Oc2ccccc2F)ccc1-n1ncc(C(=O)c2cc3cc(F)c(N4C(=O)[C@@H]5C[C@H](NC(=O)OCC6c7ccccc7-c7ccccc76)CN5C4=O)cc3[nH]2)c1N [Example 5-1-265, 9H-fluoren-9-ylmethyl N-[(6S,7aS)-2-[2-[5-amino-1-[4-(2-fluorophenoxy)-2-methylphenyl]pyrazole-4-carbonyl]-5-fluoro-1H-indol-6-yl]-1,3-dioxo-5,6,7,7a-tetrahydropyrrolo[1,2-c]imidazol-6-yl]carbamate] |
| 2.1 nM | 11 nM | 11 nM | Cc1cc(Oc2ccccc2F)ccc1-n1ncc(C(=O)c2cc3cc(C(C)C)c(N)cc3[nH]2)c1N [Example 5-1-266, [5-amino-1-[4-(2-fluorophenoxy)-2-methylphenyl]pyrazol-4-yl]-(6-amino-5-propan-2-yl-1H-indol-2-yl)methanone] |
| 2 nM | 17 nM | 21 nM | Cc1cc(Oc2ccccc2F)ccc1-n1ncc(C(=O)c2cc3cc(C(C)C)c(NS(C)(=O)=O)cc3[nH]2)c1N [Example 5-1-267, N-[2-[5-amino-1-[4-(2-fluorophenoxy)-2-methylphenyl]pyrazole-4-carbonyl]-5-propan-2-yl-1H-indol-6-yl]methanesulfonamide] |
| 12 nM | 31 nM | 120 nM | Cc1cc2cc(C(=O)c3cnn(-c4ccc(Oc5ccccc5F)cc4C)c3N)[nH]c2cc1N1C(=O)[C@@H]2C[C@H](NC(=O)OCC3c4ccccc4-c4ccccc43)CN2C1=O [Example 5-1-268, 9H-fluoren-9-ylmethyl N-[(6S,7aS)-2-[2-[5-amino-1-[4-(2-fluorophenoxy)-2-methylphenyl]pyrazole-4-carbonyl]-5-methyl-1H-indol-6-yl]-1,3-dioxo-5,6,7,7a-tetrahydropyrrolo[1,2-c]imidazol-6-yl]carbamate] |
| 2 nM | 23 nM | 110 nM | Cc1cc2cc(C(=O)c3cnn(-c4cnc(Oc5c(F)cccc5F)cc4C)c3N)[nH]c2cc1NS(=O)(=O)C1CCOCC1 [Example 5-1-269, N-[2-[5-amino-1-[6-(2,6-difluorophenoxy)-4-methylpyridin-3-yl]pyrazole-4-carbonyl]-5-methyl-1H-indol-6-yl]oxane-4-sulfonamide] |
| 4.7 nM | 28 nM | 130 nM | Cc1cc(Oc2ccccc2F)ccc1-n1ncc(C(=O)c2cc3cc(OCC(F)F)c(N4C(=O)[C@@H]5C[C@@H](NC(=O)OCC6c7ccccc7-c7ccccc76)CN5C4=O)cc3[nH]2)c1N [Example 5-1-270, 9H-fluoren-9-ylmethyl N-[(6R,7aS)-2-[2-[5-amino-1-[4-(2-fluorophenoxy)-2-methylphenyl]pyrazole-4-carbonyl]-5-(2,2-difluoroethoxy)-1H-indol-6-yl]-1,3-dioxo-5,6,7,7a-tetrahydropyrrolo[1,2-c]imidazol-6-yl] carbamate] |
| 0.51 nM | 3.2 nM | 7.2 nM | Cc1cc(Oc2ccccc2F)ccc1-n1ncc(C(=O)c2cc3cc(OCC(F)F)c(N4C(=O)NC5(CCNCC5)C4=O)cc3[nH]2)c1N [Example 5-1-271, 3-[2-[5-amino-1-[4-(2-fluorophenoxy)-2-methylphenyl]pyrazole-4-carbonyl]-5-(2,2-difluoroethoxy)-1H-indol-6-yl]-1,3,8-triazaspiro [4.5]decane-2,4-dione] |
| 0.65 nM | 4.2 nM | 7.8 nM | Cc1cc(Oc2ccccc2F)ccc1-n1ncc(C(=O)c2cc3cc(OCC(F)F)c(N4C(=O)NC5(CCN(C6COC6)CC5)C4=O)cc3[nH]2)c1N [Example 5-1-272, 3-[2-[5-amino-1-[4-(2-fluorophenoxy)-2-methylphenyl]pyrazole-4-carbonyl]-5-(2,2-difluoroethoxy)-1H-indol-6-yl]-8-(oxetan-3-yl)-1,3,8-triazaspiro[4.5]decane-2,4-dione] |
| 1.8 nM | 15 nM | 33 nM | Cc1cc(Oc2ccccc2F)ccc1-n1ncc(C(=O)c2cc3cc(OCC(F)F)c(N4C(=O)[C@@H]5C[C@H](NC(=O)OCc6ccccc6)CN5C4=O)cc3[nH]2)c1N [Example 5-1-273, Benzyl N-[(6S,7aS)-2-[2-[5-amino-1-[4-(2-fluorophenoxy)-2-methylphenyl]pyrazole-4-carbonyl]-5-(2,2-difluoroethoxy)-1H-indol-6-yl]-1,3-dioxo-5,6,7,7a-tetrahydropyrrolo[1,2-c]imidazol-6-yl]carbamate] |
| 2.1 nM | 17 nM | 45 nM | Cc1cc(Oc2ccccc2F)ccc1-n1ncc(C(=O)c2cc3cc(OCC(F)F)c(N4C(=O)[C@@H]5C[C@H](NC(=O)OCC(C)C)CN5C4=O)cc3[nH]2)c1N [Example 5-1-274, 2-methylpropyl N-[(6S,7aS)-2-[2-[5-amino-1-[4-(2-fluorophenoxy)-2-methylphenyl]pyrazole-4-carbonyl]-5-(2,2-difluoroethoxy)-1H-indol-6-yl]-1,3-dioxo-5,6,7,7a-tetrahydropyrrolo[1,2-c]imidazol-6-yl]carbamate] |
| 0.64 nM | 7 nM | 19 nM | Cc1cc(Oc2ccccc2F)ccc1-n1ncc(C(=O)c2cc3cc(OCC(F)F)c(N4C(=O)[C@@H]5C[C@H](NS(=O)(=O)Cc6ccccc6)CN5C4=O)cc3[nH]2)c1N [Example 5-1-275, N-[(6S,7aS)-2-[2-[5-amino-1-[4-(2-fluorophenoxy)-2-methylphenyl]pyrazole-4-carbonyl]-5-(2,2-difluoroethoxy)-1H-indol-6-yl]-1,3-dioxo-5,6,7,7a-tetrahydropyrrolo[1,2-c]imidazol-6-yl]-1-phenylmethanesulfonamide] |
| 2.2 nM | 35 nM | 87 nM | Cc1cc(Oc2ccccc2F)ccc1-n1ncc(C(=O)c2cc3cc(OCC(F)F)c(N4C(=O)[C@@H]5C[C@H](NS(=O)(=O)c6ccc7ccccc7c6)CN5C4=O)cc3[nH]2)c1N [Example 5-1-276, N-[(6S,7aS)-2-[2-[5-amino-1-[4-(2-fluorophenoxy)-2-methylphenyl]pyrazole-4-carbonyl]-5-(2,2-difluoroethoxy)-1H-indol-6-yl]-1,3-dioxo-5,6,7,7a-tetrahydropyrrolo[1,2-c]imidazol-6-yl]naphthalene-2-sulfonamide] |
| 1.5 nM | 12 nM | 39 nM | Cc1cc(Oc2ccccc2F)ccc1-n1ncc(C(=O)c2cc3cc(OCC(F)F)c(N4C(=O)NC5(CCN(Cc6ccccc6)CC5)C4=O)cc3[nH]2)c1N [Example 5-1-277, 3-[2-[5-amino-1-[4-(2-fluorophenoxy)-2-methylphenyl]pyrazole-4-carbonyl]-5-(2,2-difluoroethoxy)-1H-indol-6-yl]-8-benzyl-1,3,8-triazaspiro[4.5]decane-2,4-dione] |
| 1.2 nM | 8.7 nM | 23 nM | Cc1cc(Oc2ccccc2F)ccc1-n1ncc(C(=O)c2cc3cc(OCC(F)F)c(N4C(=O)[C@@H]5C[C@H](NC(=O)OCc6ccco6)CN5C4=O)cc3[nH]2)c1N [Example 5-1-278, furan-2-ylmethyl ((6S,7aS)-2-(2-(5-amino-1-(4-(2-fluorophenoxy)-2-methylphenyl)-1H-pyrazole-4-carbonyl)-5-(2,2-difluoroethoxy)-1H-indol-6-yl)-1,3-dioxohexahydro-1H-pyrrolo[1,2-c]imidazol-6-yl)carbamate] |
| 14 nM | 170 nM | 910 nM | Cc1cc(Oc2ccccc2F)ccc1-n1ncc(C(=O)c2cc3cc(OCC(F)F)c(NC(=O)OCC4c5ccccc5-c5ccccc54)cc3[nH]2)c1N [Example 5-1-279, 9H-fluoren-9-ylmethyl N-[2-[5-amino-1-[4-(2-fluorophenoxy)-2-methylphenyl]pyrazole-4-carbonyl]-5-(2,2-difluoroethoxy)-1H-indol-6-yl] carbamate] |
| 1.8 nM | 31 nM | 80 nM | Cc1cc(Oc2ccccc2F)ccc1-n1ncc(C(=O)c2cc3cc(C(C)C)c(NS(=O)(=O)CCCF)cc3[nH]2)c1N [Example 5-1-280, N-[2-[5-amino-1-[4-(2-fluorophenoxy)-2-methylphenyl]pyrazole-4-carbonyl]-5-propan-2-yl-1H-indol-6-yl]-3-fluoropropane-1-sulfonamide] |
| 1.9 nM | 27 nM | 140 nM | Cc1cc2cc(C(=O)c3cnn(-c4cnc(Oc5c(F)cccc5F)cc4C)c3N)[nH]c2cc1NS(=O)(=O)C1CCOC1 (stereo not drawn) [Example 5-1-281, N-[2-[5-amino-1-[6-(2,6-difluorophenoxy)-4-methylpyridin-3-yl]pyrazole-4-carbonyl]-5-methyl-1H-indol-6-yl]oxolane-3-sulfonamide] |
| 4.8 nM | 120 nM | 200 nM | Cc1cc(Oc2ccccc2F)ccc1-n1ncc(C(=O)c2cc3cc(C(C)C)c(NS(=O)(=O)C4CCOCC4)cc3[nH]2)c1N [Example 5-1-282, N-[2-[5-amino-1-[4-(2-fluorophenoxy)-2-methylphenyl]pyrazole-4-carbonyl]-5-propan-2-yl-1H-indol-6-yl]oxane-4-sulfonamide] |
